From ChEMBL document CHEMBL1125617, “N6-substituted adenosine receptor agonists: potential antihypertensive agents” (J Med Chem, 1991) come the findings set out here.

In assay [1] the target is Adenosine receptors; A1 & A2 (Rattus norvegicus) (UniProt P29276+P25099+P30543). The assay is described as follows: Ratio of Ki values of A1 adenosine and A2 adenosine receptor. In kind it is protein assay.
The target of assay [2] is T1, Adenosine receptor A1 (Rattus norvegicus, UniProt P25099).
T1 sequence (P25099 whole entry): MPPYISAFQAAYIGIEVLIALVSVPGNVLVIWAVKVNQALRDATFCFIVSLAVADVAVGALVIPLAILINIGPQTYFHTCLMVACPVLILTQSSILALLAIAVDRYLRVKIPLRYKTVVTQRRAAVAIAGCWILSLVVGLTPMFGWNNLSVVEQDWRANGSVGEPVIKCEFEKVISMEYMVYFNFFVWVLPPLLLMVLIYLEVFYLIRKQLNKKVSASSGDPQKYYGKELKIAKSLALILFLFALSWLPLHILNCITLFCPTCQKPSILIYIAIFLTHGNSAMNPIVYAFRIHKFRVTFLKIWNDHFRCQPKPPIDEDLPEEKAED
The assay is described as follows: Binding affinity towards adenosine A1 receptor.

For assay [3], the target named is Adenosine A2 receptor (Rattus norvegicus, UniProt P29276+P30543). The experiment in a line: Binding affinity towards adenosine A2 receptor. The format is protein assay.
Assay [4] has as its system Rattus norvegicus. The assay is described as follows: Antihypertensive activity measured as change in heart rate was measured for a 10-h after 10 mg/kg oral dose. In kind it is functional.
Assay [5] deals with Rattus norvegicus. The assay is described as follows: Antihypertensive activity was measured as change in blood pressure for a 10-h after 10 mg/kg oral dose. In kind it is functional.
Assay [6] relates to Rattus norvegicus. The assay is described as follows: Antihypertensive activity measured as change in blood pressure for a 10-h after 10 mg/kg oral dose in rat. The format is functional.

Take `CCOc1cccc2c1CCCC2Nc1ncnc2c1ncn2[C@@H]1O[C@H](CO)[C@@H](O)[C@H]1O` (stereo not given in full): in assay [1], the Ratio came out at 9.6. Further, the figures for the Ki in assay [2] and in assay [3] were 41.2 nM and 396 nM, respectively. Also, the Change is listed as below 10% in assay [4] and -42% in assay [5].
Take `CCOc1ccc2c(c1)CCC2Nc1ncnc2c1ncn2[C@@H]1O[C@H](CO)[C@@H](O)[C@H]1O` (stereo not given in full): the Ratio in assay [1] was found to be 224. Also, the Ki in assay [2] turned out to be 33.4 nM; in assay [3], 7487 nM. Besides, the Change in assay [6] is recorded as -33%; in assay [4], -34%.
For `OC[C@H]1O[C@@H](n2cnc3c(NC4COc5ccccc5C4)ncnc32)[C@H](O)[C@@H]1O` (stereo not given in full), the Ratio in assay [1] stood at 36.5. Also, the inhibitory constant (Ki) turned out to be 13.6 nM in assay [2] and 496 nM in assay [3]. The Change is listed as -33% in assay [4] and -38% in assay [5].
As for `CCCOc1ccc2c(c1)CCC2Nc1ncnc2c1ncn2[C@@H]1O[C@H](CO)[C@@H](O)[C@H]1O` (stereo not given in full), the Ratio in assay [1] was 188. The values for the inhibition constant Ki in assay [2] and in assay [3] were 28.2 nM and 5302 nM, respectively. Besides, the values for the Change in assay [6] and in assay [4] were -43% and -30%, respectively.
The like results for `COc1cc2c(c(OC)c1OC)C(Nc1ncnc3c1ncn3[C@@H]1O[C@H](CO)[C@@H](O)[C@H]1O)CC2` (stereo not given in full) were, in that order, 32.6, 1520 nM, 49710 nM, below 10% and below 10%.
The like results for `OC[C@H]1O[C@@H](n2cnc3c(NCC4CCCCc5ccccc54)ncnc32)[C@H](O)[C@@H]1O` (stereo not given in full) were, in that order, 7.3, 118 nM, 857 nM, below 10% and below 10%.
For the compound `COc1ccc2c(c1)CCCC2Nc1ncnc2c1ncn2[C@@H]1O[C@H](CO)[C@@H](O)[C@H]1O` (stereo not given in full), in assay [1], the Ratio came out at 41.2. Moreover, the Ki in assay [2] worked out at 71.5 nM; in assay [3], 2947 nM. Besides, the values for the Change in assay [6] and in assay [4] were -30% and below 10%, respectively.
The like results for `OC[C@H]1O[C@@H](n2cnc3c(NC4CCCc5ccccc54)ncnc32)[C@H](O)[C@@H]1O` (stereo not given in full) were, in that order, 9.5, 33.7 nM, 321 nM, -51% and -24%.
The like results for `OC[C@H]1O[C@@H](n2cnc3c(N[C@H]4CCCc5ccccc54)ncnc32)[C@H](O)[C@@H]1O` were, in that order, 13.3, 299 nM, 3989 nM, -28% and below 10%.
The matching figures for `OC[C@H]1O[C@@H](n2cnc3c(NC4Cc5ccccc5C4)ncnc32)[C@H](O)[C@@H]1O`: 68.9, 23.8 nM, 1642 nM, -29% and -47%.
Turning to `OC[C@H]1O[C@@H](n2cnc3c(NC4CCCc5ccc(OCc6ccccc6)cc54)ncnc32)[C@H](O)[C@@H]1O` (stereo not given in full), in assay [1], the Ratio turned out to be 12.4. Moreover, the results for the Ki in assay [2] and in assay [3] were 7660 nM and 95100 nM, respectively. Further, the values for the Change in assay [6] and in assay [4] were -30% and 20%, respectively.
The like results for `OC[C@H]1O[C@@H](n2cnc3c(NCC4(O)CCc5ccccc54)ncnc32)[C@H](O)[C@@H]1O` (stereo not given in full) were, in that order, 9.8, 68 nM, 666 nM, -23% and 17%.
On to `COc1cc2c(cc1OC)CC(Nc1ncnc3c1ncn3[C@@H]1O[C@H](CO)[C@@H](O)[C@H]1O)C2`, for which, in assay [1], the Ratio was 278. Further, the inhibition constant Ki in assay [2] turned out to be 4.98 nM; in assay [3], 1383 nM. Besides, the Change in assay [6] was -17%; in assay [4], -33%.
The matching figures for `OC[C@H]1O[C@@H](n2cnc3c(NC4CCCc5c(OCc6ccccc6)cccc54)ncnc32)[C@H](O)[C@@H]1O` (stereo not given in full): 3.7, 138 nM, 511 nM, -14% and 20%.
The matching figures for `OC[C@H]1O[C@@H](n2cnc3c(NC4CCCc5ccccc5C4)ncnc32)[C@H](O)[C@@H]1O` (stereo not given in full): 48.7, 25.4 nM, 1234 nM, -22% and -32%.
For the compound `O=[N+]([O-])c1ccc2c(c1)CCC2Nc1ncnc2c1ncn2[C@@H]1O[C@H](CO)[C@@H](O)[C@H]1O` (stereo not given in full), the Ratio in assay [1] was 87.6. For the same compound, the Ki in assay [2] was 40.5 nM; in assay [3], 3548 nM. The Change in assay [6] was -14%; in assay [4] it was below 10%.
Turning to `OC[C@H]1O[C@@H](n2cnc3c(N[C@@H]4CCCc5ccccc54)ncnc32)[C@H](O)[C@@H]1O`, the Ratio in assay [1] turned out to be 7.1. Moreover, the results for the Ki in assay [2] and in assay [3] were 22.9 nM and 163 nM, respectively. Further, the Change is given as -57% in assay [6] and -30% in assay [4].
The like results for `CCCOc1cccc2c1CCCC2Nc1ncnc2c1ncn2[C@@H]1O[C@H](CO)[C@@H](O)[C@H]1O` (stereo not given in full) were, in that order, 4, 81.1 nM, 327 nM, -27% and 16%.
The like results for `OC[C@H]1O[C@@H](n2cnc3c(NC4CSc5ccccc5C4)ncnc32)[C@H](O)[C@@H]1O` (stereo not given in full) were, in that order, 63.9, 3.6 nM, 229 nM, -21% and -33%.
The matching figures for `OC[C@H]1O[C@@H](n2cnc3c(NC4CCSc5ccccc54)ncnc32)[C@H](O)[C@@H]1O` (stereo not given in full): 1.83, 31.9 nM, 58.3 nM, -23% and 29%.
Turning to `CC(C)Oc1cccc2c1CCCC2Nc1ncnc2c1ncn2[C@@H]1O[C@H](CO)[C@@H](O)[C@H]1O` (stereo not given in full), the Ratio in assay [1] is 7.3. For the same compound, the results for the inhibition constant (Ki) in assay [2] and in assay [3] were 87.9 nM and 642 nM, respectively. The Change is given as -19% in assay [6] and 24% in assay [4].
The like results for `CC(C)Oc1ccc2c(c1)C(Nc1ncnc3c1ncn3[C@@H]1O[C@H](CO)[C@@H](O)[C@H]1O)CCC2` (stereo not given in full) were, in that order, 102, 425 nM, 43440 nM, -41% and 27%.
As to `OC[C@H]1OC(n2cnc3c(NCC4(O)CCCc5ccccc54)ncnc32)[C@H](O)[C@@H]1O` (stereo not given in full), the Ratio in assay [1] is 31.4. The Ki in assay [2] was 61.3 nM; in assay [3], 1922 nM. Further, the Change in assay [6] and in assay [4] was below 10% each time.
As to `CCCOc1ccc2c(c1)C(Nc1ncnc3c1ncn3[C@@H]1O[C@H](CO)[C@@H](O)[C@H]1O)CCC2` (stereo not given in full), the Ratio in assay [1] was 95.5. The Ki in assay [2] is 506 nM; in assay [3], 48290 nM. Besides, the Change was below 10% in assay [6] and 36% in assay [4].
The matching figures for `COc1cccc2c1CCCC2Nc1ncnc2c1ncn2[C@@H]1O[C@H](CO)[C@@H](O)[C@H]1O` (stereo not given in full): 9.2, 23.7 nM, 218 nM, -52% and -31%.
The matching figures for `CCOc1ccc2c(c1)C(Nc1ncnc3c1ncn3[C@@H]1O[C@H](CO)[C@@H](O)[C@H]1O)CCC2` (stereo not given in full): 86.4, 68.6 nM, 5929 nM, -39% and 32%.
The like results for `OC[C@H]1O[C@@H](n2cnc3c(NC4CCc5cc6c(cc54)OCO6)ncnc32)[C@H](O)[C@@H]1O` (stereo not given in full) were, in that order, 89.9, 50.5 nM, 4539 nM, -21% and -21%.
For the compound `CCCCCOc1ccc2c(c1)CCC2Nc1ncnc2c1ncn2[C@@H]1O[C@H](CO)[C@@H](O)[C@H]1O` (stereo not given in full), the Ratio in assay [1] worked out at 120. Moreover, the Ki in assay [2] stood at 104 nM; in assay [3], 12480 nM. In addition, the Change in assay [6] is reported as -47%; in assay [4], -20%.
The matching figures for `COc1cc2c(cc1OC)C(Nc1ncnc3c1ncn3[C@@H]1O[C@H](CO)[C@@H](O)[C@H]1O)CC2` (stereo not given in full): 26.2, 115 nM, 3002 nM, -19% and below 10%.
In the case of `OC[C@H]1O[C@@H](n2cnc3c(NCC4CCCc5ccccc54)ncnc32)[C@H](O)[C@@H]1O` (stereo not given in full), the Ratio in assay [1] was 5.2. Besides, the Ki in assay [2] turned out to be 17.3 nM; in assay [3] it was 91.7 nM. Further, the values for the Change in assay [6] and in assay [4] were below 10% and 21%, respectively.

Usually Ki stands for the dissociation constant of the complex between target and ligand, obtained from inhibition or displacement. Higher therefore signals lower affinity.
